Measured values taken from US4692443A, “3-bicyclicpyridinium-methyl cephalosporins” (Eli Lilly and Company, priority 1984, dated 1987).
Values after ≈ are worked out from the molar mass of the structure shown. Where two headings read alike, the source gives them in different places.

Key:
Assay type in all cases: cell-based
Strep. D X66 = test: standard in vitro agar dilution assay (MIC); settings: Strep. D strain X66
Strep. D 9960 = test: standard in vitro agar dilution assay (MIC); settings: Strep. D strain 9960
Serratia X99 = test: standard in vitro agar dilution assay (MIC)
H. influ. C.L. = test: standard in vitro agar dilution assay (MIC); settings: read-out: Agar Dilution MIC
E. coli TEM = test: standard in vitro agar dilution assay (MIC); settings: Escherichia coli, read-out: Agar Dilution MIC
Staph. epi 222 = test: standard in vitro agar dilution assay (MIC); settings: Staph. epi strain 222
Staph. aureus X1.1 = test: standard in vitro agar dilution assay (MIC); settings: Staphylococcus aureus; Staph. aureus strain X1.1; read-out: Agar Dilution MIC
E. coli EC14 = test: standard in vitro agar dilution assay (MIC); settings: Escherichia coli, EC14, read-out: Agar Dilution MIC
Klebsiella KAE = test: standard in vitro agar dilution assay (MIC); settings: Klebsiella strain KAE; read-out: Agar Dilution MIC
Salmonella X514 = test: standard in vitro agar dilution assay (MIC); settings: Salmonella strain X514; read-out: Agar Dilution MIC
Pseudomonas X239 = test: standard in vitro agar dilution assay (MIC); settings: Pseudomonas strain X239
Klebsiella X68 = test: standard in vitro agar dilution assay (MIC); settings: Klebsiella, X68, read-out: Agar Dilution MIC
Staph. aureus X400 = test: standard in vitro agar dilution assay (MIC); settings: Staphylococcus aureus; Staph. aureus strain X400
Pseudomonas X528 = test: standard in vitro agar dilution assay (MIC); settings: Pseudomonas strain X528
Excerpt: The antibacterial activity of several representative compounds of the invention has been evaluated in standard in vitro agar dilution assays. The following Table presents typical minimum inhibitory concentrations (MIC's) in μg /ml for exemplary compounds when evaluated against typical Gram + and Gram - microorganism.

Staph. aureus V41 = test: standard in vitro agar dilution assay (MIC); settings: Staphylococcus aureus
E. coli N10 = test: standard in vitro agar dilution assay (MIC); settings: Escherichia coli
Klebsiella X26 = test: standard in vitro agar dilution assay (MIC)
Staph. aureus S13E = test: microbe, parasite or virus in culture; settings: Staphylococcus aureus, read-out: Agar Dilution MIC
Enterobacter cloacae EB5 = test: standard in vitro agar dilution assay (MIC); settings: Enterobacter cloacae, EB5, read-out: Agar Dilution MIC
Staph. epi EPI1 = test: standard in vitro agar dilution assay (MIC); settings: Staph. epi strain EPI1
[1] = system: Enterobacter aerogenes C32; test: standard in vitro agar dilution assay (MIC); settings: Klebsiella aerogenes
Strep. PN PARK = test: standard in vitro agar dilution assay (MIC); settings: Strep. PN strain PARK
Strep. A C203 = test: standard in vitro agar dilution assay (MIC); settings: Strep. A strain C203
H. influ. 76 = test: standard in vitro agar dilution assay (MIC); settings: read-out: Agar Dilution MIC
[2] = Serratia, X99, read-out: Agar Dilution MIC
[3] = N10, read-out: Agar Dilution MIC
[4] = Enterobacter aerogenes strain C32, read-out: Agar Dilution MIC
[5] = Staph. aureus strain V41, read-out: Agar Dilution MIC
[6] = E. coli strain N10, read-out: Agar Dilution MIC
[7] = Klebsiella strain X26, read-out: Agar Dilution MIC
[8] = C32, read-out: Agar Dilution MIC

| SMILES | MIC (Strep. D X66) [µg/mL] | MIC (Strep. D 9960) [µg/mL] | MIC (Serratia X99; [2]) [µg/mL] | MIC (H. influ. C.L.; H. influ. strain C.L.) [µg/mL] | MIC (Staph. epi 222) [µg/mL] | MIC (Staph. aureus X1.1) [µg/mL] | MIC (E. coli EC14) [µg/mL] | MIC (Klebsiella KAE) [µg/mL] | MIC (Salmonella X514) [µg/mL] | MIC (Pseudomonas X239) [µg/mL] | MIC (Klebsiella X68) [µg/mL] | MIC (Staph. aureus X400) [µg/mL] | MIC (Pseudomonas X528) [µg/mL] | MIC (Staph. aureus S13E) [µg/mL] | MIC (Enterobacter cloacae EB5) [µg/mL] | MIC (Staph. epi EPI1) [µg/mL] | MIC (Strep. PN PARK) [µg/mL] | MIC (Staph. aureus V41; [5]) [µg/mL] | MIC (Klebsiella X26; [7]) [µg/mL] | MIC (Strep. A C203) [µg/mL] | further results |
| --- | --- | --- | --- | --- | --- | --- | --- | --- | --- | --- | --- | --- | --- | --- | --- | --- | --- | --- | --- | --- | --- |
| CC(C)(O/N=C(\C(=O)NC1C(=O)N2C(C(=O)[O-])=C(C[n+]3ccc4[nH]cnc4c3)CSC12)c1csc(N)n1)C(=O)O (stereo not drawn) [Example 1, syn-7-[2-(2-Aminothiazol-4-yl)-2-(2-carboxyprop-2-yl)oxyiminoacetamido]-3-(1H-imidazolo[4,5c]pyridinium-5-ylmethyl)-3-cephem-4-carboxylate] | > 128 | 16 (≈ 27.3 µM) | 0.5 (≈ 0.852 µM) | 0.03 (≈ 0.0511 µM) | 16 (≈ 27.3 µM) | 8 (≈ 13.6 µM) | 0.125 (≈ 0.213 µM) | 1 (≈ 1.7 µM) | 0.5 (≈ 0.852 µM) | 2 (≈ 3.41 µM) | 0.125 (≈ 0.213 µM) | 128 (≈ 218 µM) | 8 (≈ 13.6 µM) | 32 (≈ 54.6 µM) | 0.25 (≈ 0.426 µM) | 32 (≈ 54.6 µM) |  |  |  |  | MIC (E. coli TEM): 0.125 µg/mL (≈ 0.213 µM); MIC (Staph. aureus V41; V41, read-out: Agar Dilution MIC): 32 µg/mL (≈ 54.6 µM); MIC (E. coli N10; [3]): 0.5 µg/mL (≈ 0.852 µM); MIC (Klebsiella X26; Klebsiella, X26, read-out: Agar Dilution MIC): 0.125 µg/mL (≈ 0.213 µM); MIC [1, 4]: 1 µg/mL (≈ 1.7 µM) |
| CO/N=C(\C(=O)NC1C(=O)N2C(C(=O)[O-])=C(C[n+]3ccc4[nH]c(-c5cccs5)nc4c3)CSC12)c1csc(N)n1 (stereo not drawn) [Example 8, syn-7-[2-(2-aminothiazol-4-yl)-2-methoxyiminoacetamido]-3-[2-(2-thienyl)-1H-imidazolo[4,5-c]pyridinium-5-ylmethyl)-3-cephem-4-carboxylate] | > 128 | 4 (≈ 6.7 µM) | 0.5 (≈ 0.838 µM) |  | 2 (≈ 3.35 µM) | 2 (≈ 3.35 µM) |  | 4 (≈ 6.7 µM) | 0.5 (≈ 0.838 µM) |  | 0.5 (≈ 0.838 µM) | 32 (≈ 53.6 µM) |  | 8 (≈ 13.4 µM) | 0.5 (≈ 0.838 µM) | 4 (≈ 6.7 µM) | < 0.008 | 8 (≈ 13.4 µM) | 0.015 (≈ 0.0251 µM) | < 0.008 | MIC (H. influ. C.L.): 0.25 µg/mL (≈ 0.419 µM); MIC (E. coli N10; [6]): 1 µg/mL (≈ 1.68 µM); MIC [1, 8]: 0.5 µg/mL (≈ 0.838 µM) |
| CO/N=C(\C(=O)NC1C(=O)N2C(C(=O)[O-])=C(C[n+]3ccc4[nH]c(-c5ccccc5)nc4c3)CSC12)c1csc(N)n1 (stereo not drawn) [Example 9, syn-7-[2-(2-aminothiazol-4-yl)-2-methoxyiminoacetamido]-3-(2-phenyl-1H-imidazolo[4,5-c]pyridinium-5-ylmethyl)-3-cephem-4-carboxylate] | > 128 | 4 (≈ 6.77 µM) |  | 0.5 (≈ 0.847 µM) | 2 (≈ 3.39 µM) | 2 (≈ 3.39 µM) | 0.125 (≈ 0.212 µM) | 2 (≈ 3.39 µM) | 0.5 (≈ 0.847 µM) |  | 0.5 (≈ 0.847 µM) | 32 (≈ 54.2 µM) |  | 8 (≈ 13.5 µM) | 0.5 (≈ 0.847 µM) | 4 (≈ 6.77 µM) | < 0.008 | 8 (≈ 13.5 µM) | 0.015 (≈ 0.0254 µM) | < 0.008 | MIC (Serratia X99; Serratia strain X99, read-out: Agar Dilution MIC): 1 µg/mL (≈ 1.69 µM); MIC (E. coli N10; [6]): 1 µg/mL (≈ 1.69 µM); MIC [1, 8]: 0.5 µg/mL (≈ 0.847 µM) |
| CO/N=C(\C(=O)NC1C(=O)N2C(C(=O)[O-])=C(C[n+]3cccc4oc(N)nc43)CSC12)c1csc(N)n1 (stereo not drawn) [Example 10, syn-7-[2-(2-aminothiazol-4-yl)-2-methoxyiminoacetamido]-3-(2-aminooxazolo[4,5-b]pyridinium-4-ylmethyl)-3-cephem-4-carboxylate] | > 128 | 16 (≈ 30.2 µM) | 0.125 (≈ 0.236 µM) |  | 1 (≈ 1.88 µM) |  |  | 4 (≈ 7.54 µM) |  | 2 (≈ 3.77 µM) |  | 32 (≈ 60.3 µM) | 4 (≈ 7.54 µM) | 4 (≈ 7.54 µM) | 0.25 (≈ 0.471 µM) | 2 (≈ 3.77 µM) | 0.015 (≈ 0.0283 µM) | 4 (≈ 7.54 µM) | 0.03 (≈ 0.0565 µM) | 0.015 (≈ 0.0283 µM) | MIC (E. coli TEM; E. coli strain TEM): 0.03 µg/mL (≈ 0.0565 µM); MIC (E. coli N10; [3]): 0.125 µg/mL (≈ 0.236 µM); MIC (H. influ. 76): 0.125 µg/mL (≈ 0.236 µM); MIC [1, 4]: 0.125 µg/mL (≈ 0.236 µM) |
